Columns and labels:
MCF7 breast cancer cells [1] = experiment: RNA-Seq gene expression profiling of isopicrinine-treated MCF7 cells; assay type: cell-based, human; details: MCF7, vs DMSO control, dose not given
Method: MCF7 cells (1.6×10^5 cells) were treated with varying doses (sub-lethal) of purified isopicrinine i.e., 30 μM and 150 μM, in triplicates, for 18 hrs at 37° C. Total RNA was extracted using TRIzol reagent. Gene expression analyses of drug-treated MCF7 cells in the presence of sub-lethal concentrations of isopicrinine were performed using Illumina HiSeq. Each RNA was ribo-depleted (Ribo-Zero, Epicentre) prior to cDNA libarary preparation (ScriptSeq epicenter). Each cDNA was separately barcode tagged during library preparation, and sequenced in multiplex generating approximately >40 million 100 bp reads per sample for the mammalian cell line. The Illumina reads were mapped to their respective assembled reference transcriptome sequence using the mapping software TopHat and Cufflinks (Trapnell, C., Pachter, L., Salzberg, S. L. 2009. TopHat: discovering splice junctions with RNA-Seq. Bioinformatics, May 1; 25(9):1105-11. doi: 10.1093/bioinformatics/btp120, incorporated herein by reference in its entirety). Illumina read abundances mapping to each reference contig was normalized using the RPKM (reads per Kb per million reads) calculation. Differentially expressed transcripts were identified and functionally annotated using a variety of statistical analyses available via bioconductor in R language (Durinck, S., Moreau, Y., Kasprzyk, A., Davis, S., De Moor, B., Brazma, A., Huber, W. 2005. BioMart and Bioconductor: a powerful link between biological databases and microarray data analysis. Bioinformatics, 21(16), 3439-3440. doi: 10.1093/bioinformatics/bti525, incorporated herein by reference in its entirety). Clusters of differentially expressed and cycling transcripts were annotated to identify over-represented GO/KEGG pathways (Kanehisa, M., Goto, S., Sato, Y., Furumichi, M., Tanabe, M., 2012. KEGG for integration and interpretation of large-scale molecular data sets. Nucleic Acids Res., 40 (Database issue), D109-14. doi: 10.1093/nar/gkr988, incorporated herein by reference in its entirety).
MCF7 cell line was treated with sub-lethal doses of 30 μM and 150 μM of isopicrinine. […] RNA-Seq transcription profiling was performed for analyzing the transcriptome profile in alkaloid treated MCF7 cells in order to evaluate the pharmacological effects of the new alkaloid isolated from Rhazya stricta. To identify the differentially regulated/expressed genes after treatment with isopicrinine, RNA was extracted from alkaloid treated MCF7 cells (30 μM and 150 μM doses) and DMSO-treated control cells and RNA-Seq experiment was carried out. The sequencing data were compared and analyzed to identify the differentially expressed genes in mammalian cells after treatment with isopicrinine.

MCF7 breast cancer cells [2] = experiment: Hoechst 33342 staining of nuclear morphological changes (apoptosis); assay type: cell-based, human; details: MCF7, 150 μM, 24 hrs, FIG. 3B
Method: MCF7 cells (2×10^4 cells/well) were treated with 3 μM, 30 μM, 300 μM, 600 μM, 1.5 mM of isopicrinine at 37° C. in a humidified incubator with 5% CO2 for 20 hrs. After the drug treatment, cells were analysed under phase contrast microscope. Cytotoxicity was detected at 300 μM concentration onwards in all the samples. […] The nuclear morphological changes, which are mainly associated with apoptosis were analysed by Hoechst 33342 staining. Briefly, MCF7 cells (2×10^4 cells/well) were grown on coverslips and treated with 150 μM of purified alkaloid for 24 hrs. The cells were washed with Dulbecco's phosphate buffer saline (DPBS) and fixed with 100% methanol for 15 min at room temperature. Cells were washed with DPBS and stained with Hoechst 33342 for 15 min at room temperature. The cells were washed thrice with DPBS and analysed under fluorescent microscope (Nikon, Japan).

AsPC1 cell line = experiment: cells; assay type: cell-based; details: Homo sapiens, ASPC1, 24 h, read-out: % Cell viability
Method: (§1) MCF7, a breast cancer cell line was procured from the American Type Culture Collection (ATCC) and propagated in Dulbecco's Modified Eagle's medium (DMEM) supplemented with 10% (v/v) fetal bovine serum (FBS), 100 μg/ml streptomycin and 100 U/ml penicillin at 37° C. in a humidified incubator with 5% CO2. Human pancreatic cell lines, AsPC1 and PANC1, were obtained from the American Type Culture Collection (ATCC). AsPC1 cell line was grown in RPMI-1640 medium supplemented with 10% (v/v) fetal bovine serum (FBS), 100 μg/ml streptomycin and 100 U/ml penicillin. PANC1 cell line was cultured in DMEM supplemented with 10% (v/v) fetal bovine serum (FBS), 100 μg/ml streptomycin and 100 U/ml penicillin.
(§2) PANC1 and AsPC1 cells (1.3×10^4 cells/well) were sub-cultured in 96-well plates and incubated at 37° C. in a humidified incubator with 5% CO2 for 24 hrs. Varying concentrations of isopicrinine (i.e., 0, 30 μM, 75 μM, 150 μM and 300 μM were added to the cultured cells and further incubated at 37° C. in a humidified incubator with 5% CO2 for 24 hrs. The cell viability was determined using MTT (3-(4,5-dimethylthiazol-2-yl)-2,5-diphenyltetrazolium bromide) assay by following the manufacturer's instructions. Briefly, 20 μl/well of MTT was added to the cells and plates were incubated for 4 hrs. After the incubation, media along with the MTT was removed and 150 μl/well of isopropanol was added and further incubated for 15 min on shaker incubator. Spectrophotometer readings were taken at 450 nm and 630 nm. This assay is based on the conversion of yellow tetrazolium salt MTT to purple formazan crystal by metabolically active cells. The amount of formazan produced is proportional to the number of viable cells.

PANC1 cell line = experiment: cells; assay type: cell-based; details: Homo sapiens, PANC-1, 24 h, read-out: % Cell Viability
Method: as §1, §2

MCF7 breast cancer cells [3] = experiment: cells; assay type: cell-based, human
Method: as §1
MCF7 cells (2×10^4 cells/well) were sub-cultured in 24-well plate and incubated at 37° C. in a humidified incubator with 5% CO2 for 20 hrs. […] After the drug treatment, cells were analysed under phase contrast microscope. […]
MCF7 cells (2×10^4 cells/well) were treated with 3 μM, 30 μM, 300 μM, 600 μM, 1.5 mM of isopicrinine at 37° C. in a humidified incubator with 5% CO2 for 20 hrs. After the drug treatment, cells were analysed under phase contrast microscope. Cytotoxicity was detected at 300 μM concentration onwards in all the samples. […] The nuclear morphological changes, which are mainly associated with apoptosis were analysed by Hoechst 33342 staining. […]

MCF7 breast cancer cells [4] = experiment: RNA-Seq gene expression profiling of isopicrinine-treated MCF7 cells; assay type: cell-based, human; details: MCF7, 30 μM and 150 μM
[5] = Response to DNA damage stimulus

`C/C=C1\CN2[C@H]3C[C@@H]1[C@@H](C(=O)OC)[C@]14C[C@H]2O[C@]31Nc1ccccc14` [isopicrinine] was tested, and the “log2 (fold change) RAD51AP1” value (MCF7 breast cancer cells [1]; DNA repair) was −1.652, the “log2 (fold change) UHRF1” value (MCF7 breast cancer cells [1]; DNA repair) was −1.1337 and the “log2 (fold change) CDC45” value (MCF7 breast cancer cells [1]; DNA replication) was −1.801. The “log2 (fold change) MCM3” value (MCF7 breast cancer cells [1]; DNA replication) was −1.644, the “log2 (fold change) MCM4” value (MCF7 breast cancer cells [1]; DNA replication) was −1.522 and the “log2 (fold change) MCM5” value (MCF7 breast cancer cells [1]; DNA replication) was −1.878. For the same compound, the “log2 (fold change) MCM6” value (MCF7 breast cancer cells [1]; DNA replication) was −1.423, the “log2 (fold change) MCM7” value (MCF7 breast cancer cells [1]; DNA replication) was −1.716 and the “log2 (fold change) MCM8” value (MCF7 breast cancer cells [1]; DNA replication) was −1.013. For the same compound, the “log2 (fold change) MCM10” value (MCF7 breast cancer cells [1]; DNA replication) was −1.321, the “log2 (fold change) RFC3” value (MCF7 breast cancer cells [1]; DNA replication) was −1.142 and the “log2 (fold change) RRM2” value (MCF7 breast cancer cells [1]; DNA replication) was −1.2797. For the same compound, the “log2 (fold change) TOP2A” value (MCF7 breast cancer cells [1]; DNA replication) was −1.662, the “log2 (fold change) BBC3” value (MCF7 breast cancer cells [1]; Induction of apoptosis) was 1.481 and the “log2 (fold change) CDKN1A” value (MCF7 breast cancer cells [1]; Induction of apoptosis) was 1.119. The “log2 (fold change) INHBA” value (MCF7 breast cancer cells [1]; Induction of apoptosis) was 1.026, the “log2 (fold change) MAGED1” value (MCF7 breast cancer cells [1]; Induction of apoptosis) was 0.8954 and the “log2 (fold change) LTBP4” value (MCF7 breast cancer cells [1]; Regulation of cell growth) was 1.504. For the same compound, the “log2 (fold change) SPP1” value (MCF7 breast cancer cells [1]; Regulation of cell growth) was 1.075, the “log2 (fold change) VGF” value (MCF7 breast cancer cells [1]; Regulation of cell growth) was 0.9472 and the “log2 (fold change) ATAD2” value (MCF7 breast cancer cells [1]; Regulation of transcription) was −1.388. For the same compound, the “log2 (fold change) ATAD5” value (MCF7 breast cancer cells [1]; Regulation of transcription) was −1.628, the “log2 (fold change) ATF3” value (MCF7 breast cancer cells [1]; Regulation of transcription) was 1.3961 and the “log2 (fold change) BRIP1” value (MCF7 breast cancer cells [1]; Regulation of transcription) was −1.416. The “log2 (fold change) EGR1” value (MCF7 breast cancer cells [1]; Regulation of transcription) was 1.39, the “log2 (fold change) FHL2” value (MCF7 breast cancer cells [1]; Regulation of transcription) was 1.024 and the “log2 (fold change) MDM2” value (MCF7 breast cancer cells [1]; Regulation of transcription) was 1.725. For the same compound, the “log2 (fold change) MXI1” value (MCF7 breast cancer cells [1]; Regulation of transcription) was 1.118, the “log2 (fold change) MYBL2” value (MCF7 breast cancer cells [1]; Regulation of transcription) was −1.231 and the “log2 (fold change) NRG1” value (MCF7 breast cancer cells [1]; Regulation of transcription) was 0.8825. For the same compound, the “log2 (fold change) BTG2” value (MCF7 breast cancer cells [1]; [5]) was 1.485, the “log2 (fold change) CCND1” value (MCF7 breast cancer cells [1]; [5]) was 1.49 and the “log2 (fold change) DDB2” value (MCF7 breast cancer cells [1]; [5]) was 1.191. For the same compound, the “log2 (fold change) GADD45A” value (MCF7 breast cancer cells [1]; [5]) was 1.333, the “nuclear morphology, Hoechst 33342 staining” value (MCF7 breast cancer cells [2]) was “chromatin condensation and nuclear fragmentation” and the viability at 30 µM (AsPC1 cell line) was 87.7%. For the same compound, the viability at 75 µM (AsPC1 cell line) was 55.9%, the viability at 150 µM (AsPC1 cell line) was 53.5% and the viability at 300 µM (AsPC1 cell line) was 42.4%. For the same compound, the viability at 30 µM (PANC1 cell line) was 74.5%, the viability at 75 µM (PANC1 cell line) was 70.8% and the viability at 150 µM (PANC1 cell line) was 69.6%. The viability at 300 µM (PANC1 cell line) was 64.6%, the IC50 (MCF7 breast cancer cells [3]; Homo sapiens, MCF7, 20 h, read-out: IC50 value (cytotoxic activity against MCF7 cells)) was 240 µM and the “cell morphology after treatment with high doses” value (MCF7 breast cancer cells [3]; MCF7, FIGS. 2D-2F (300, 600, 1,500 μM)) was “cell shrinkage, cellular detachment and loss of adherent morphology”. For the same compound, the “cell proliferation at low doses compared to DMSO control” value (MCF7 breast cancer cells [4]) was “prevented further cell proliferation”.
